Holding throughout (format): in vivo
In data set [1] the test system is Citric acid induced cough. Kind of data set: Citric acid induced cough in Guinea pig. Conditions: for Cough strokes after treatment: mean ± S.E.; for Cough strokes after treatment / % inhibition vs. basal (cough strokes): n = 10; for ED50: Cavia porcellus, ip., citric acid cough, read-out: DE50 (effective dose 50, ED50). The source says: 1. Citric acid induced cough in Guinea pig. The procedure described by R.A. Turner in "Screening methods in pharmacology-Antitussive agents" -Academic Press. New York-chapt. 23-page 219, 1965, with the changes reported by S. Malandrino et al. (Arzneim. Forsch. Drug. REs, 38, 1141, 1988), was used, comparing YS 912 with Ambroxol.

A further data set has as its system NH3 induced cough. Put plainly: NH3 induced cough in Guinea pig. Conditions: for antitussive activity in words: NH3 cough, p.o., Ambroxol at twice the YS 912 dose.
Data set [2] deals with Cough induced by mechanical stimulation. Put plainly: Cough induced by mechanical stimulation in dog. Conditions: for antitussive activity in words: mechanical stimulation, p.o., Ambroxol at twice the YS 912 dose.
Source text: 24 Page 523, was used, comparing YS 912 with Ambroxol, Fominoben and Codeine phosphate.
For the next data set, the system named is bronchial fluid. Kind of data set: Bronchosecretolytic activity (fluorescein amount in bronchial fluid). As to conditions: for Fluorescein amount in bronchial fluid: means of 12 animals, controls 0.26 ± 0.03; for ED50: po, bronchosecretolytic activity, read-out: DE50 (calculated effective dose 50). The source says: The procedure described by H. […] Graziani and P. Cazzulani-(I1 Farmaco Ed. Pr. 36, 167; 1981) was used, comparing YS 912 with Ambroxol at the same weight doses.

Data set [3] in a line: Acute pharmacokinetic study in the rat, single administration at equimolecular doses. As for the experimental part: A study was carried out on the rat, by comparing the kinetic profiles of YS 912 and Ambroxol, after single administration at equimolecular doses.
A short description of data set [4]: "In steady" pharmacokinetic study in the rat, equimolecular doses during 6 days. Conditions: extrapolated to human from rat.
Where [5] appears, read: single administration at equimolecular doses.

We go through four compounds from patent US5352703A, “Antitussive and mucus regulating agent, a process for the preparation thereof and pharmaceutical compositions containing it” (priority 1990, dated 1994).

“Also recorded” adds a separate entry of the source.

Source text for NH3 induced cough: 23-page 219, 1965 with the changes reported by S. Malandrino et al. (Arzneim. Forsch. Drug. Res, 38, 1141, 1988) was used, comparing YS 912, Ambroxol and two standard control drugs: Fominoben and Codeine phosphate.

Regarding `Nc1c(Br)cc(Br)cc1CNC1CCC(O)CC1` (stereo not shown) [Ambroxol, 2-Amino-3,5-dibromo-N-(4-hydroxycyclohexyl)benzylamine, reference compound], the “Cough strokes after treatment” value in data set [1] (12.5 mg/kg ip.) is given as 7.40 ± 1.32 cough strokes; in data set [1] (25 mg/kg ip.), 6.20 ± 0.61 cough strokes; in data set [1] (50 mg/kg ip.), 4.80 ± 1.02 cough strokes. The “% inhibition vs. basal (cough strokes)” value in data set [1] (12.5 mg/kg ip.) was 19.57%; in data set [1] (25 mg/kg ip.) it was 35.42%; in data set [1] (50 mg/kg ip.), 46.07%. Further, the ED50 was 57.2 mg/kg in data set [1] and 95.2 mg/kg with bronchial fluid. Also, the “% inhibition vs. controls” value in the data set on NH3 induced cough (100 mg/kg p.o.) turned out to be 34.2%; in data set [2] (100 mg/kg p.o.), 13.5%. The “antitussive activity in words” value is given as “poorly effective, lacking any statistical significance” in the data set on NH3 induced cough and “substantially no effectiveness” in data set [2]. In addition, the results for the “% v.s. controls (fluorescein amount)” value in the data set on bronchial fluid (12.5 mg/kg p.o.), in the data set with bronchial fluid (25.0 mg/kg p.o.) and in the data set with bronchial fluid (50.0 mg/kg p.o.) were 23.07%, 26.92% and 42.30%, respectively. Further, the “Fluorescein amount in bronchial fluid” value with bronchial fluid (12.5 mg/kg p.o.) was determined as 0.32 ± 0.03; with bronchial fluid (25.0 mg/kg p.o.) it was 0.33 ± 0.02; in the data set with bronchial fluid (50.0 mg/kg p.o.), 0.37 ± 0.03. Also, the “last time at which it can be dosed in plasma” value in data set [3] (in vivo) stood at 12 h. Moreover, the “time of plasmatic concentration peak” value in data set [3] (in vivo) is reported as “second”.

As for `COc1ccc2c3c1O[C@H]1[C@@H](O)C=C[C@H]4[C@@H](C2)N(C)CC[C@@]341` [Codeina fosfato], the “% inhibition vs. controls” value in the data set on NH3 induced cough (5 mg/kg p.o.) was 56.1%; in data set [2] (5 mg/kg p.o.) it was 63.1%.

As to `CN(CC(=O)N1CCOCC1)Cc1c(Cl)cccc1NC(=O)c1ccccc1` [Fominoben], the “% inhibition vs. controls” value with NH3 induced cough (50 mg/kg p.o.) turned out to be 63.4%; in data set [2] (50 mg/kg p.o.), 59.0%.

For the compound `O=C(Nc1c(Br)cc(Br)cc1CNC1CCC(O)CC1)c1ccccc1` (stereo not shown) [YS 912, 2-benzoylamino-3,5-dibromo-N-(4-hydroxycyclohexyl)benzylamine], the figures for the “Cough strokes after treatment” value in data set [1] (12.5 mg/kg ip.), in data set [1] (25 mg/kg ip.) and in data set [1] (50 mg/kg ip.) were 2.90 ± 0.60 cough strokes, 2.30 ± 0.54 cough strokes and 2.00 ± 0.47 cough strokes, respectively. The “% inhibition vs. basal (cough strokes)” value was found to be 62.34% in data set [1] (12.5 mg/kg ip.), 75.00% in data set [1] (25 mg/kg ip.) and 78.95% in data set [1] (50 mg/kg ip.). Also, the “antitussive activity in words” value is listed as “remarkable antitussive activity; also recorded: higher than that of Ambroxol” in data set [1] (12.5, 25, 50 mg/kg ip., compared with Ambroxol); “high activity” in the data set on NH3 induced cough; “comparable to that of the two control compounds” in data set [2]. The results for the ED50 (in data set [1]; in the data set with bronchial fluid) were 4.81 mg/kg and 60 mg/kg, respectively. For the same compound, the “potency by ED50 relative to Ambroxol” value in data set [1] (ratio to Ambroxol) stood at 14 times. In addition, the results for the “% inhibition vs. controls” value (with NH3 induced cough (50 mg/kg p.o.); in data set [2] (50 mg/kg p.o.)) were 61.0% and 54.0%, respectively. In addition, the results for the “% v.s. controls (fluorescein amount)” value in the data set on bronchial fluid (12.5 mg/kg p.o.), in the data set with bronchial fluid (25.0 mg/kg p.o.) and in the data set on bronchial fluid (50.0 mg/kg p.o.) were 19.23%, 30.76% and 46.15%, respectively. Further, the results for the “Fluorescein amount in bronchial fluid” value in the data set on bronchial fluid (12.5 mg/kg p.o.), in the data set on bronchial fluid (25.0 mg/kg p.o.) and in the data set on bronchial fluid (50.0 mg/kg p.o.) were 0.31 ± 0.03, 0.34 ± 0.04 and 0.38 ± 0.04, respectively. Moreover, in the data set on bronchial fluid (p.o.), the “bronchosecretolytic effectiveness in words” value is given as “more favourable”. In data set [3] (plasma, single administration, read-out: time of plasmatic concentration peak (converted)), the Tmax was 30 min. Also, in data set [3] (single administration), the “adsorption (absorption)” value is “fast and high”. Also, the main metabolite entry in data set [3] (single administration) was “the main metabolite being Ambroxol”. Further, in data set [3] (setting [5]), the “AUC compared with Ambroxol” value is recorded as “higher value being evidenced also in the case of the AUC”. Further, the “plasmatic half-life, increase over that of Ambroxol” value in data set [3] (setting [5]) stood at 30%. Further, the “metabolism: kinetic” value in data set [3] (single administration, after the 6th hour) is “slower kinetic”. In data set [4], the “plasmatic concentrations in human clinic, extrapolated, two daily YS 912 vs three daily Ambroxol administrations” value is “two daily administrations of YS 912 allow to achieve plasmatic concentrations (and therefore therapeutical effectiveness) which can be compared with those obtained after three daily administrations of Ambroxol”.
